Assay results: article PMC11230938 (2024)

Tests used:
[1] = system: OTC22 (DNA, aptamer) GACGACAAAGCGTCTTACGTGCATACTTTTGTTGTCGTC; experiment: intrinsic fluorescence titration of OTC; details: 50 mM NaCl, 2 mM MgCl2; 10 mM MES pH 6.0; 100 nM OTC; 1 min equilibration
[2] = system: OTC11 (DNA, aptamer) GACGACGCAGACATCTTGTGTGTCATAGCGCGCTACGTCGTC; experiment: intrinsic fluorescence titration of OTC; details: 50 mM NaCl, 2 mM MgCl2; 10 mM MES pH 6.0; 100 nM OTC; 1 min equilibration
[3] = system: OTC34 (DNA, aptamer) GACGACGCAGTCTGATTTCAGCCATAGTTTTACTGCGTCGTC; experiment: intrinsic fluorescence titration of OTC; details: 50 mM NaCl, 2 mM MgCl2; 10 mM MES pH 6.0; 100 nM OTC; 1 min equilibration
[4] = system: OTC23 (DNA, aptamer) GACGACGTGCTATTGCCTCAGTCATTCTCTGAGTCGTCGTC; experiment: intrinsic fluorescence titration of OTC; details: 50 mM NaCl, 2 mM MgCl2; 10 mM MES pH 6.0; 100 nM OTC; 1 min equilibration
[5] = system: OTC8 (DNA, aptamer) GACGACGGGCAAGATCTATTCTTCACGTTCACCTTTGTCGTC; experiment: intrinsic fluorescence titration of OTC; details: 50 mM NaCl, 2 mM MgCl2; 10 mM MES pH 6.0; 100 nM OTC; 1 min equilibration
[6] = system: OTC22 (DNA, aptamer) GACGACAAAGCGTCTTACGTGCATACTTTTGTTGTCGTC; experiment: ITC; details: 50 mM NaCl, 2 mM MgCl2; 10 mM MES pH 6.0, 25 °C; 9 μM aptamer, 150 μM OTC
[7] = system: OTC43 (DNA, aptamer) GACGACTGGACCCTTCTGTGGTAGATTCTATCTAATGTCGTC; experiment: ITC; details: 50 mM NaCl, 2 mM MgCl2; 10 mM MES pH 6.0, 25 °C; 9 μM aptamer, 150 μM OTC
[8] = system: OTC2 (DNA, aptamer) GACGACGCAATGTCCTTCGCAGGATCCGTTTACGGTGTCGTC; experiment: intrinsic fluorescence titration of OTC; details: 50 mM NaCl, 2 mM MgCl2; 10 mM MES pH 6.0; 100 nM OTC; 12 min equilibration per addition (0.57 μM after 1 min)
[9] = system: OTC26 (DNA, aptamer) GACGACATAGCTTGCTACCACTCGTCTCCGTAGTGGCAGTCGTC; experiment: intrinsic fluorescence titration of OTC; details: 50 mM NaCl, 2 mM MgCl2; 10 mM MES pH 6.0; 100 nM OTC; 1 min equilibration
[10] = system: OTC43 (DNA, aptamer) GACGACTGGACCCTTCTGTGGTAGATTCTATCTAATGTCGTC; experiment: intrinsic fluorescence titration of OTC; details: 50 mM NaCl, 2 mM MgCl2; 10 mM MES pH 6.0; 100 nM OTC; 1 min equilibration
[11] = system: OTC2 (DNA, aptamer) GACGACGCAATGTCCTTCGCAGGATCCGTTTACGGTGTCGTC; experiment: ITC; details: 50 mM NaCl, 2 mM MgCl2; 10 mM MES pH 6.0, 25 °C; 9 μM aptamer, 150 μM OTC

Kd [1]: 290 nM
Kd [2]: 320 nM
Kd [3]: 530 nM
Kd [4]: 360 nM
Kd [5]: 200 nM
Kd [6]: 490 ± 110 nM
Kd [7]: 1600 ± 570 nM
Kd [8]: 81 nM
Kd [9]: 590 nM
Kd [10]: 690 nM
Kd [11]: 62 ± 20 nM
SMILES: CN(C)[C@@H]1C(=O)C(C(N)=O)=C(O)[C@@]2(O)C(=O)C3=C(O)c4c(O)cccc4[C@@](C)(O)[C@H]3[C@H](O)[C@@H]12
